From US9487489B2, “Halogen-substituted pyrazole derivatives as pest-control agents” (BAYER CROPSCIENCE AKTIENGESELLSCHAFT, priority 2013, dated 2016)

Columns and labels:
[1] = tested on: caterpillars of the armyworm (Spodoptera frugiperda); assay: Spodoptera frugiperda spray test (SPODFR); format: in vivo; conditions: maize leaf discs, after 7 days
Method in brief: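 Percent kill read at day 7 on caterpillar-infested maize leaf discs. Discs were first sprayed with aqueous emulsifier-containing (1000 ppm) preparations made from acetone/dimethylformamide solutions, and dried. Scale: 0% none dead, 100% all dead.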

[2] = tested on: green peach aphid (Myzus persicae); assay: Myzus persicae spray test (MYZUPE); format: in vivo; conditions: Chinese cabbage leaf discs, after 6 days
Method: G. Myzus persicae-spray Test (MYZUPE)
Solvents: 78 parts by weight of acetone
• 1.5 parts by weight of dimethylformamide Emulsifier: alkylaryl polyglycol ether
To produce a suitable preparation of active compound, 1 part by weight of active compound is dissolved using the stated parts by weight of solvent and made up with water comprising an emulsifier concentration of 1000 ppm until the desired concentration is reached. To produce further test concentrations, the preparation is diluted with emulsifier-containing water.
Discs of Chinese cabbage leaves (Brassica pekinensis) infested by all stages of the green peach aphid (Myzus persicae) are sprayed with an active compound preparation of the desired concentration.
After 6 days, the efficacy in % is determined 100% here means that all of the aphids have been killed; 0% means that no aphids have been killed.

[3] = logP determination by HPLC on a reversed-phase column (C18), EEC Directive 79/831 Annex V.A8; format: physicochemical; conditions: HPLC on reversed-phase column (C18), acetonitrile/water with formic acid, EEC Directive 79/831 Annex V.A8
Method in brief: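 Per EEC 79/831 Annex V.A8, values derive from HPLC retention at 2.0 ml/min and 55° C on a 50*4.6 C18 column. The 10→95% acetonitrile gradient (0.1%/0.09% formic acid) lasted 4.25 min plus a 1.25 min hold; mass detection was by MSD.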

[4] = tested on: larvae of the mustard beetle (Phaedon cochleariae); assay: Phaedon cochleariae spray test (PHAECO); format: in vivo; conditions: Chinese cabbage leaf discs, after 7 days
Method in brief: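 Kill of mustard beetle larvae is read as % mortality 7 days after spraying. Spray liquid: active compound in acetone plus dimethylformamide, brought up with water holding 1000 ppm alkylaryl polyglycol ether emulsifier and diluted further in emulsifier-water.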

[5] = tested on: greenhouse red spider mite (Tetranychus urticae); assay: Tetranychus urticae spray test, OP-resistant (TETRUR); format: in vivo; conditions: bean leaf discs, after 6 days
Method in brief: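 Percent kill, scored 6 days post-spray (0% = none dead, 100% = all dead), on Phaseolus vulgaris leaf discs infested with every life stage of the OP-resistant spider mite. Compound dissolved in acetone plus DMF, diluted to test concentration with emulsifier-containing water (1000 ppm).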

[6] = tested on: adult cat fleas (Ctenocephalides felis); assay: Ctenocephalides felis in vitro contact test with adult cat fleas (T1); conditions: application rate 5 μg/cm^2; after 48 h
Method in brief: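 Adult cat fleas (Ctenocephalides felis), 5-10 per tube, were exposed to the inner surface of 25 ml test tubes coated with compound in acetone. Tubes were incubated lying flat under ambient conditions. Efficacy was then read by standing tubes upright and knocking the fleas to the floor. Fleas that stayed motionless or moved uncoordinatedly counted as dead or moribund, where 100% means all fleas dead or moribund and 0% means none harmed.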

[7] = tested on: engorged adult female cattle ticks (Boophilus microplus); assay: Boophilus microplus injection test (BOOPMI Inj); format: in vivo; conditions: application rate 20 μg/animal; injection into abdomen; assessed after 7 days
Method in brief: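 Efficacy is read at 7 days as fertile egg laying (100% = no fertile eggs laid; 0% = all eggs fertile), with eggs of unclear fertility stored until larvae hatch at about 42 days. Five engorged adult females per dose each receive an abdominal injection of 1 μl compound dissolved in DMSO.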

[8] = tested on: adult dog ticks (Rhipicephalus sanguineus); assay: Rhipicephalus sanguineus in vitro contact test with adult brown dog ticks (T2); conditions: after 48 h
Method in brief: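 Acetone solutions coated onto test tube walls and floor, giving 5 μg/cm^2 at 900 ppm. Five to ten adult ticks held per tube in the dark at room temperature for 48 h, then heated at 45-50° C for up to 5 min; efficacy is the percentage of dead or moribund ticks unable to climb away.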

[9] = tested on: adult cat fleas (Ctenocephalides felis); assay: Ctenocephalides felis oral test (CTECFE); format: in vivo; conditions: application rate 100 ppm in citrated cattle blood; after 2 days
Method in brief: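 Mortality read at 2 days as percent of fleas killed. Compound predissolved in DMSO, diluted into citrated cattle blood and offered to roughly 20 unfed adult C. felis via parafilm membrane feeder.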

[10] = tested on: L1 larvae of the Australian sheep blowfly (Lucilia cuprina); assay: Lucilia cuprina test (LUCICU); format: in vivo; conditions: application rate 100 ppm; after 2 days
Method in brief: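 Percent mortality read at 2 days; 100% = all larvae killed, 0% = none. Test compound, predissolved in DMSO and water-diluted to the wanted level, was mixed into minced horsemeat holding roughly 20 first-instar larvae.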

[11] = tested on: adult houseflies (Musca domestica); assay: Musca domestica test (MUSCDO); format: in vivo; conditions: application rate 100 ppm; after 2 days
Method in brief: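 Groups of 10 adult Musca domestica exposed to a sugar-soaked sponge treated with the water-diluted DMSO preparation of compound at the chosen concentration. Percent kill read at day 2, where 0% means no flies killed and 100% all killed.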

| SMILES | efficacy in % ([1]; application rate 100 g/ha) [%] | efficacy in % ([2]; application rate 100 g/ha) [%] | logP [3] | efficacy in % ([4]; application rate 100 g/ha) [%] | efficacy in % ([5]; application rate 100 g/ha) [%] | efficacy in % ([1]; application rate 500 g/ha) [%] | efficacy in % ([2]; application rate 500 g/ha) [%] | efficacy in % ([4]; application rate 500 g/ha) [%] | efficacy in % ([5]; application rate 500 g/ha) [%] | efficacy (dead or moribund fleas) [6] [%] | efficacy (laying of fertile eggs) [7] [%] | efficacy (dead or moribund ticks) ([8]; application rate 1 μg/cm^2) [%] | efficacy (kill in %) [9] [%] | efficacy (kill in %) [10] [%] | efficacy (kill in %) [11] [%] | efficacy (dead or moribund ticks) ([8]; application rate 5 μg/cm^2) [%] |
| --- | --- | --- | --- | --- | --- | --- | --- | --- | --- | --- | --- | --- | --- | --- | --- | --- |
| Cc1ccc(-c2cnn(-c3c(C(F)(F)F)c(C(F)(F)C(F)(F)F)nn3C)c2)cc1C(=O)NC1(C#N)CC1 [Ic-129] | 100 | 90 | 3.73 | 100 | 100 | – | – | – | – | – | – | – | – | – | – | – |
| Cn1nc(C(F)(F)C(F)(F)F)c(C(F)(F)F)c1-n1cc(-c2ccc(Cl)c(C(=O)NC3CC3C(F)(F)F)c2)cn1 (centres unmarked) [Ic-181] | – | – | 4.26 | – | – | 100 | 100 | 100 | 100 | – | – | – | – | – | – | – |
| Cn1nc(C(F)(F)F)c(C(F)(F)F)c1-n1cc(-c2ccc(Cl)c(C(=O)NC3CC3)c2)cn1 [Ic-126] | 100 | 100 | 3.42 | 100 | 100 | – | – | – | – | – | – | – | – | – | – | – |
| CCO[C@@H]1C[C@H]1NC(=O)c1cc(-c2cnn(-c3c(C(F)(F)F)c(C(F)(F)C(F)(F)F)nn3C)c2)ccc1Cl [Ic-180] | – | – | 3.99 | – | – | 100 | 90 | 100 | 100 | – | – | – | – | – | – | – |
| COC1(NC(=O)c2cc(-c3cnn(-c4c(C(F)(F)F)c(C(F)(F)C(F)(F)F)nn4C)c3)ccc2Cl)CC1 [Ic-187] | – | – | 3.83 | – | – | 100 | 90 | 100 | 100 | – | – | – | – | – | – | – |
| COc1ccc(-c2cnn(-c3c(C(F)(F)F)c(C(F)(F)C(F)(F)F)nn3C)c2)cc1C(=O)NC1CC1 [Ic-68] | 83 | – | 3.86 | 100 | 100 | – | – | – | – | 100 | 100 | 100 | 100 | 100 | 80 | – |
| Cn1nc(C(F)(F)C(F)(F)F)c(C=O)c1-n1cc(-c2ccc(Cl)c(C(=O)NC3(C#N)CC3)c2)cn1 [Ic-121] | – | 100 | 3.09 | 100 | 100 | – | – | – | – | – | – | – | – | – | – | – |
| Cn1nc(C(F)(F)F)c(C(F)(F)F)c1-n1cc(-c2ccc(Cl)c(C(=O)NC3(C#N)CC3)c2)cn1 [Ic-127] | 100 | 100 | 3.3 | 100 | 100 | – | – | – | – | – | – | – | – | – | – | – |
| Cn1nc(C(F)(F)F)c(CF)c1-n1cc(-c2ccc(Cl)c(C(=O)NC3(C#N)CC3)c2)cn1 [Ic-115] | 100 | 90 | 2.89 | 100 | 100 | – | – | – | – | – | – | – | – | – | – | – |
| Cn1nc(C(F)(F)C(F)(F)F)c(C(F)(F)F)c1-n1cc(-c2ccc(Cl)c(C(=O)NC3CS(=O)(=O)C3)c2)cn1 [Ic-117] | – | – | 3.37 | – | – | 100 | 90 | 100 | 100 | – | – | – | – | – | – | – |
| Cn1nc(C(F)(F)F)c([S+](C)[O-])c1-n1cc(-c2ccc(Cl)c(C(=O)NC3(C#N)CC3)c2)cn1 (centres unmarked) [Ic-134] | – | 100 | 2.16 | 100 | 100 | – | – | – | – | – | – | – | – | – | – | – |
| CSc1ccc(-c2cnn(-c3c(C(F)(F)F)c(C(F)(F)C(F)(F)F)nn3C)c2)cc1C(=O)NC1CC1 [Ic-182] | 100 | 100 | 3.81 | 100 | 90 | – | – | – | – | – | – | – | – | – | – | – |
| COc1ccc(-c2cnn(-c3c(C(F)(F)F)c(C(F)(F)C(F)(F)F)nn3C)c2)cc1C(=O)NC1(C#N)CC1 [Ic-67] | – | – | 3.77 | 100 | 100 | – | – | – | – | – | 100 | 80 | 100 | 100 | 95 | – |
| CCN(CC)S(=O)(=O)c1ccc(-c2cnn(-c3c(C(F)(F)F)c(C(F)(F)C(F)(F)F)nn3C)c2)cc1C(=O)NC1CC1 [Ic-185] | 100 | 100 | 3.99 | 100 | 100 | – | – | – | – | – | – | – | – | – | – | – |
| Cn1nc(C(F)(F)C(F)(F)F)c(C(F)(F)F)c1-n1cc(-c2ccc(Cl)c(C(=O)NC3C[S+]([O-])C3)c2)cn1 (centres unmarked) [Ic-116] | – | – | 3.03 | – | – | 100 | 90 | 100 | 100 | – | – | – | – | – | – | – |
| Cn1nc(C(F)(F)C(F)(F)F)c(C(F)(F)F)c1-n1cc(-c2ccc(Cl)c(C(=O)NC3(C4CC4)CC3)c2)cn1 [Ic-188] | – | – | 4.43 | – | – | 100 | 100 | 100 | 100 | – | – | – | – | – | – | – |
| Cn1nc(C(F)(F)F)c(C(F)F)c1-n1cc(-c2ccc(Cl)c(C(=O)NC3CC3)c2)cn1 [Ic-133] | 100 | 100 | 3.01 | 100 | 100 | – | – | – | – | – | – | – | – | – | – | – |
| Cn1nc(C(F)(F)C(F)(F)F)c(C(F)(F)F)c1-n1cc(-c2cc(C(=O)NC3(C#N)CC3)ncc2F)cn1 [Ic-73] | 100 | – | – | – | 100 | 100 | – | 100 | – | – | 100 | 80 | 100 | 100 | 90 | 80 |
